Test results from US8569344B2, “N-piperidinyl acetamide derivatives as calcium channel blockers” (Zalicus Pharmaceuticals Ltd., priority 2008, dated 2013).

How the values were obtained:
[1] = molecular target: T1, human α1G T-type channels (Homo sapiens, UniProt O43497); experiment: T-type calcium channel block, whole cell patch clamp in HEK cells (α1G); assay type: cell-based; details: HEK cells, patch clamp, mainly non-inactivated protocol; values above 10 μM shown as 10 μM, below 0.30 μM shown as 0.30 μM; read-out: T-type Calcium Channel Block α1G IC50
T1 construct: expressed in transfected cells; host or cells: HEK 293
T1 sequence (O43497 whole entry): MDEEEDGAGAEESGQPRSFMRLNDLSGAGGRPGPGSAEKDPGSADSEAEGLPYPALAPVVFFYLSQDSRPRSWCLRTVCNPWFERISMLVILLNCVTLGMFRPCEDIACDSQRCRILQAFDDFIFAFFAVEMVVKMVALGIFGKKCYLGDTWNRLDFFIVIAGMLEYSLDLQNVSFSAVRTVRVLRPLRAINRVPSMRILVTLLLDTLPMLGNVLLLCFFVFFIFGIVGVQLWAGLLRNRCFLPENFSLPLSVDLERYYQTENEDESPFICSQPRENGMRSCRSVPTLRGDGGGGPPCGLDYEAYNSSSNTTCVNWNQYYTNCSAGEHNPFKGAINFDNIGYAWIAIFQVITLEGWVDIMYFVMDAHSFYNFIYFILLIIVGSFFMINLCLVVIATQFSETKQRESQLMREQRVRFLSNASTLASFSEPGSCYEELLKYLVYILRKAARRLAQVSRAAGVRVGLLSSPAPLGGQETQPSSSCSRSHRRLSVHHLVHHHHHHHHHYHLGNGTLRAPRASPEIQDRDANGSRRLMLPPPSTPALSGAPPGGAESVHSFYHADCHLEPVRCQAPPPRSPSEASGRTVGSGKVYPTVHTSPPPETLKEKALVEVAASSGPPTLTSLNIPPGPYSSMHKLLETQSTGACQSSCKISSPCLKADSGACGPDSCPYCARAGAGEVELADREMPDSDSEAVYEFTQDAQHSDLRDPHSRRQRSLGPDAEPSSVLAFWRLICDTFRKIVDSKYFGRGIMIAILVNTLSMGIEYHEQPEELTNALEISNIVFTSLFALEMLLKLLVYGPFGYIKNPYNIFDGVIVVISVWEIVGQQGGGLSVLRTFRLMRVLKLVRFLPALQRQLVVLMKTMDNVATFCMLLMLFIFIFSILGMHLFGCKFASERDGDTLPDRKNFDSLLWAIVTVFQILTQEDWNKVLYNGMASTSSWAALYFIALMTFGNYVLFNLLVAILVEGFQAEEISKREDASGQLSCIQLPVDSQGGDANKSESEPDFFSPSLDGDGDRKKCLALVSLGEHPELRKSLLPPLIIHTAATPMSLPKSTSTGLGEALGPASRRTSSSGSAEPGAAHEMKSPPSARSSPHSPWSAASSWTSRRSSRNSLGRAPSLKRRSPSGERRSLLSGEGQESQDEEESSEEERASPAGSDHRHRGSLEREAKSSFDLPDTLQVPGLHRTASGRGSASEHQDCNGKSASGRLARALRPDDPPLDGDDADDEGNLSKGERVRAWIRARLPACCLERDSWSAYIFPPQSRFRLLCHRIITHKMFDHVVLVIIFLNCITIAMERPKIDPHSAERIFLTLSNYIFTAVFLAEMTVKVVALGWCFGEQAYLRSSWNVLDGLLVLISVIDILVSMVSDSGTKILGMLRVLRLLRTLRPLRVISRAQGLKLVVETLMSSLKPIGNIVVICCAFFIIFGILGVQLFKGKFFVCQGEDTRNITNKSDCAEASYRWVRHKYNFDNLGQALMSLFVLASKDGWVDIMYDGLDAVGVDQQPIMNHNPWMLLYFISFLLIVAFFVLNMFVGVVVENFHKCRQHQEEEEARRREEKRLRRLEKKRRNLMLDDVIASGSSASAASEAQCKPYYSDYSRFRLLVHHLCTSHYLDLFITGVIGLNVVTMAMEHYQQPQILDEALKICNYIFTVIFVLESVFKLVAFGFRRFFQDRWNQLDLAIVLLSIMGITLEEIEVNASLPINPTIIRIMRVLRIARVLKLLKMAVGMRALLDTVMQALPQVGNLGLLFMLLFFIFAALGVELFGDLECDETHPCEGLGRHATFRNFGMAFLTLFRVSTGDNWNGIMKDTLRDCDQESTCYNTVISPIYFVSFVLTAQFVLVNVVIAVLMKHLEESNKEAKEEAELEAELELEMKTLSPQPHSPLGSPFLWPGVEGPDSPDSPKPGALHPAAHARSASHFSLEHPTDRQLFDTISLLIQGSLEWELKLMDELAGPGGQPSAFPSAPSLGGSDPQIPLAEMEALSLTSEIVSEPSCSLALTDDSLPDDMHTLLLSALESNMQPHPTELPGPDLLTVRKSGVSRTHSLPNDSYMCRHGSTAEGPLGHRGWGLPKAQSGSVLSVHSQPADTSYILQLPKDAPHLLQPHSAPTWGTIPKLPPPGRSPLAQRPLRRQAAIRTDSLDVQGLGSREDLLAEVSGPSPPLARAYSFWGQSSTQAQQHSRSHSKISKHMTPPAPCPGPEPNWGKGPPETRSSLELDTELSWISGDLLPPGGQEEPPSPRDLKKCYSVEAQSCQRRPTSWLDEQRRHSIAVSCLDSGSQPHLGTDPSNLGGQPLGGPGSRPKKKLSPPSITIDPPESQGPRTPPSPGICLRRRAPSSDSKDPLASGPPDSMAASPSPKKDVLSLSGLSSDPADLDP

[2] = molecular target: T2, human α1H T-type channels (Homo sapiens, UniProt O95180); experiment: T-type calcium channel block, whole cell patch clamp in HEK cells (α1H); assay type: cell-based; details: HEK cells, patch clamp, mainly non-inactivated protocol; values above 10 μM shown as 10 μM; read-out: T-type Calcium Channel Block α1H IC50
T2 construct: expressed in transfected cells; host or cells: HEK 293
T2 sequence (O95180 whole entry): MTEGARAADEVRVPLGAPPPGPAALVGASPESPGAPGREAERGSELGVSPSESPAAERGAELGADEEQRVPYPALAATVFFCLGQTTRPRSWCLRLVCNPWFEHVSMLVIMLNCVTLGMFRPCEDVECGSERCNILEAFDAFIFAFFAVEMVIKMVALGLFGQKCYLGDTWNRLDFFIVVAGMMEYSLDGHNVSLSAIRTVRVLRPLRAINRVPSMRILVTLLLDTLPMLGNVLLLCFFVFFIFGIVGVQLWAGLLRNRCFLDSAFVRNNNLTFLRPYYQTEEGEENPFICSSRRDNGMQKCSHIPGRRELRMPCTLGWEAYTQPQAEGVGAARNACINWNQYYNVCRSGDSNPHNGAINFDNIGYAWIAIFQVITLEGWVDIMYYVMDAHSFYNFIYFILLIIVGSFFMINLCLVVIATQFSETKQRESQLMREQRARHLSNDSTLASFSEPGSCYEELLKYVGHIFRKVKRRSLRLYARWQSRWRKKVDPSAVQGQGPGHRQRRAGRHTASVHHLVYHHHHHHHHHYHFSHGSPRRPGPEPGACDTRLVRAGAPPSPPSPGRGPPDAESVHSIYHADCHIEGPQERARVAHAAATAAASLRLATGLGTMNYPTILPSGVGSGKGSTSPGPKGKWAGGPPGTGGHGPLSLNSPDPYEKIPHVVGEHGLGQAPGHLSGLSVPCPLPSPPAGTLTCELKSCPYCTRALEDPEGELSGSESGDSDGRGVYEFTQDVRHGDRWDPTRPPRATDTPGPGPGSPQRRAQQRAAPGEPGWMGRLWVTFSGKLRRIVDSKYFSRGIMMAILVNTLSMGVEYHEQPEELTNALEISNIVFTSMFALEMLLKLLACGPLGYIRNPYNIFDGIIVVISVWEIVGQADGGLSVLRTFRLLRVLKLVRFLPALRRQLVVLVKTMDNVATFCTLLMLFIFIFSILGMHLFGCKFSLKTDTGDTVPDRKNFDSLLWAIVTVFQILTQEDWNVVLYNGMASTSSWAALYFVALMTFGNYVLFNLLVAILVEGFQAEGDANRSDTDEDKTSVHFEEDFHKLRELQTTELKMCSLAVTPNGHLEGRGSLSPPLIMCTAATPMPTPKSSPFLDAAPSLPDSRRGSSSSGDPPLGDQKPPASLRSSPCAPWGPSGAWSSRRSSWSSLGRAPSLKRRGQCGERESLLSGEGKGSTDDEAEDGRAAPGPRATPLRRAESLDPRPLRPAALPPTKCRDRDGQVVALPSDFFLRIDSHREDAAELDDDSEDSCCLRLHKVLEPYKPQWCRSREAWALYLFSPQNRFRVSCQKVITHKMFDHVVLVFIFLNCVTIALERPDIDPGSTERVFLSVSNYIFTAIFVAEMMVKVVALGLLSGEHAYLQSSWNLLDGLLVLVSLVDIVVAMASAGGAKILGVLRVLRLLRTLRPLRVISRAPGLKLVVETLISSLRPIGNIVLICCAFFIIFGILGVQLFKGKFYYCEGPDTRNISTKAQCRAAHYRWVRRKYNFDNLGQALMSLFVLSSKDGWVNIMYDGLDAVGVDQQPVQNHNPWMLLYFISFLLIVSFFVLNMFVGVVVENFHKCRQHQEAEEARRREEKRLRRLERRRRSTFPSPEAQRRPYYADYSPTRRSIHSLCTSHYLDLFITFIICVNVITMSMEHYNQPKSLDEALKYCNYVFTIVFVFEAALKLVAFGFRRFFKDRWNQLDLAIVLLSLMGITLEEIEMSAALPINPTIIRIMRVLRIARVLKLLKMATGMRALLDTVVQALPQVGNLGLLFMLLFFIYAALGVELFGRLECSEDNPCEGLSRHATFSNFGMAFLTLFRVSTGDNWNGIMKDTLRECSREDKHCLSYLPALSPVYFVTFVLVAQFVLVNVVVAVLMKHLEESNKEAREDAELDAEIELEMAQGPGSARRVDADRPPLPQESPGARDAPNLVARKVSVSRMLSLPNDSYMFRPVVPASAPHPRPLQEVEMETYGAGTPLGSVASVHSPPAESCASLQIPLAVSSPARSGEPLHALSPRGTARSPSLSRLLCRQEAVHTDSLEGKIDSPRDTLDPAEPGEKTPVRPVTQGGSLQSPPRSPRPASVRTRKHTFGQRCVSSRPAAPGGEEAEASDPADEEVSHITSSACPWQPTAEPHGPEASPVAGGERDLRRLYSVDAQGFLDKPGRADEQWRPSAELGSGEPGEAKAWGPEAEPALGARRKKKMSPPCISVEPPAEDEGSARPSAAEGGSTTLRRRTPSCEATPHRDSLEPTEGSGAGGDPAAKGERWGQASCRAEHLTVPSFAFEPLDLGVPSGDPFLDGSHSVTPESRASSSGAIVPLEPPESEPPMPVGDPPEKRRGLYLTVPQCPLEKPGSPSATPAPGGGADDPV

## CC(C(=O)N1CCC[C@H]1C(F)(F)F)N1CCC(CNC(=O)c2cc(F)cc(Cl)c2)CC1 (stereo partly drawn) [Compound 548, 3-chloro-5-fluoro-N-((1-(1-oxo-1-((S)-2-(trifluoromethyl)pyrrolidin-1-yl)propan-2-yl)piperidin-4-yl)methyl)benzamide]
[1]
  IC50: < 300 nM
[2]
  IC50: 160 nM

## CC(C)COC(=O)NCCN1CCC(CNC(=O)c2cc(C(F)(F)F)cc(C(F)(F)F)c2)CC1 [Compound 37, isobutyl 2-(4-((3,5-bis(trifluoromethyl)benzamido)methyl)piperidin-1-yl)ethylcarbamate]
[1]
  IC50: < 300 nM
[2]
  IC50: 170 nM

## COc1cc(F)cc(C(=O)NCC2CCN(CC(=O)NC3CCCC3)CC2)c1 [Compound 532, N-((1-(2-(cyclopentylamino)-2-oxoethyl)piperidin-4-yl)methyl)-3-fluoro-5-methoxybenzamide]
[1]
  IC50: < 300 nM
[2]
  IC50: 130 nM

## Cc1cc(F)cc(C(=O)NCC2CCN(CC(=O)NC(C)(C)C(F)(F)F)CC2)c1 [Compound 455, 3-fluoro-5-methyl-N-((1-(2-oxo-2-(1,1,1-trifluoro-2-methylpropan-2-ylamino)ethyl)piperidin-4-yl)methyl)benzamide]
[1]
  IC50: < 300 nM
[2]
  IC50: 30 nM

## CCOC(=O)NCCN1CCC(CNC(=O)c2cc(C(F)(F)F)cc(C(F)(F)F)c2)CC1 [Compound 36, ethyl 2-(4-((3,5-bis(trifluoromethyl)benzamido)methyl)piperidin-1-yl)ethylcarbamate]
[1]
  IC50: 4300 nM
[2]
  IC50: 1700 nM

## CC(C)COC(=O)NC1(CN2CCC(CNC(=O)c3cc(C(F)(F)F)cc(C(F)(F)F)c3)CC2)CCCC1 [Compound 18, isobutyl 1-((4-((3,5-bis(trifluoromethyl)benzamido)methyl)piperidin-1-yl)methyl)cyclopentyl-carbamate]
[1]
  IC50: < 300 nM
[2]
  IC50: 80 nM

## CC(C)(C)N/C(CN1CCC(CNC(=O)c2cc(F)cc(C(F)(F)F)c2)CC1)=N\C#N [Compound 510, (Z)-N-((1-(2-(tert-butylamino)-2-(cyanoimino)ethyl)piperidin-4-yl)methyl)-3-fluoro-5-(trifluoromethyl) benzamide]
[1]
  IC50: 3970 nM
[2]
  IC50: > 10000 nM

## CC(C)(C)C1CCN(CC(=O)N2CCC(CNC(=O)c3cc(C(F)(F)F)cc(C(F)(F)F)c3)CC2)CC1 [Compound 258, N-((1-(2-(4-tert-butylpiperidin-1-yl)acetyl)piperidin-4-yl)methyl)-3,5-bis(trifluoromethyl)benzamide]
[1]
  IC50: 1180 nM
[2]
  IC50: 3240 nM

## CC(C)NC(=O)CN1CCC(CNC(=O)c2cccc(Cl)c2)CC1 [Compound 442, 3-chloro-N-((1-(2-(isopropylamino)-2-oxoethyl)piperidin-4-yl)methyl)benzamide]
[1]
  IC50: > 10000 nM
[2]
  IC50: > 10000 nM

## O=C(NCC1CCN(CCNC(=O)C2(C(F)(F)F)CCCC2)CC1)c1cc(F)cc(C(F)(F)F)c1 [Compound 341, 3-fluoro-5-(trifluoromethyl)-N-((1-(2-(1-(trifluoromethyl)cyclopentanecarbox-amido)ethyl)piperidin-4-yl)methyl) benzamide]
[1]
  IC50: < 300 nM
[2]
  IC50: 120 nM

## O=C(NCC1CCN(CCNC(=O)C2(C(F)(F)F)CCCC2)CC1)c1cc(C(F)(F)F)cc(C(F)(F)F)c1 [Compound 340, 3,5-bis(trifluoromethyl)-N-((1-(2-(1-(trifluoromethyl)cyclopentanecarbox-amido)ethyl)piperidin-4-yl)methyl) benzamide]
[1]
  IC50: < 300 nM
[2]
  IC50: 120 nM

## CC(C)S(=O)(=O)NC(CN1CCC(CC(=O)NC(c2cccc(F)c2)c2cccc(F)c2)CC1)C(C)(C)C (stereo not shown) [Compound 222, N-(bis(3-fluorophenyl)methyl)-2-(1-(3,3-dimethyl-2-(1-methylethylsulfonamido)butyl)piperidin-4-yl)acetamide]
[1]
  IC50: 2030 nM
[2]
  IC50: > 10000 nM

## O=C(NCC1CCN(CC2(NS(=O)(=O)C3CC3)CC2)CC1)c1cc(C(F)(F)F)cc(C(F)(F)F)c1 [Compound 359, N-((1-((1-(cyclopropanesulfonamido)cyclopropyl)methyl)piperidin-4-yl)methyl)-3,5-bis(trifluoromethyl)benzamide]
[1]
  IC50: 380 nM
[2]
  IC50: 490 nM

## CCCNC(=O)NC1(CN2CCC(CNC(=O)c3cc(C(F)(F)F)cc(C(F)(F)F)c3)CC2)CCCC1 [Compound 13, N-((1-((1-(3-propylureido)cyclopentyl)methyl)piperidin-4-yl)methyl)-3,5-bis(trifluoromethyl)benzamide]
[1]
  IC50: 630 nM
[2]
  IC50: 1870 nM

## Cc1cc(F)cc(C(=O)NCC2CCN(CCNS(=O)(=O)C(F)(F)F)CC2)c1 [Compound 331, 3-fluoro-5-methyl-N-((1-(2-(trifluoromethylsulfonamido)ethyl)piperidin-4-yl)methyl)benzamide]
[1]
  IC50: > 10000 nM
[2]
  IC50: > 10000 nM

## CC(C)NC(=O)CN1CCC(CNC(=O)c2cccc(Br)c2)CC1 [Compound 441, 3-bromo-N-((1-(2-(isopropylamino)-2-oxoethyl)piperidin-4-yl)methyl)benzamide]
[1]
  IC50: 9480 nM
[2]
  IC50: > 10000 nM

## O=C(NCC1CCN(C(=O)CN2CCC(F)(F)C2)CC1)c1cc(C(F)(F)F)cc(C(F)(F)F)c1 [Compound 226, N-((1-(2-(3,3-difluoropyrrolidin-1-yl)acetyl)piperidin-4-yl)methyl)-3,5-bis(trifluoromethyl)benzamide]
[1]
  IC50: > 10000 nM
[2]
  IC50: > 10000 nM

## CC(C)(C)NC(=O)CN1CCC(CNC(=O)c2cc(Br)cc(C(F)(F)F)c2)CC1 [Compound 382, 3-bromo-N-((1-(2-(tert-butylamino)-2-oxoethyl)piperidin-4-yl)methyl)-5-(trifluoromethyl)benzamide]
[1]
  IC50: < 300 nM
[2]
  IC50: 90 nM

## COc1ccc(C(=O)NCC2CCN(CCNS(=O)(=O)C3CC3)CC2)cc1OC [Compound 324, N-((1-(2-(cyclopropanesulfonamido)ethyl)piperidin-4-yl)methyl)-3,4-dimethoxybenzamide]
[1]
  IC50: > 10000 nM
[2]
  IC50: > 10000 nM

## O=C(CCC(F)(F)F)NCCN1CCC(CNC(=O)c2cccc(OC(F)(F)F)c2)CC1 [Compound 311, N-((1-(2-(4,4,4-trifluorobutanamido)ethyl)piperidin-4-yl)methyl)-3-(trifluoromethoxy) benzamide]
[1]
  IC50: 2650 nM
[2]
  IC50: 330 nM

## O=C(NCC1CCN(CC(=O)N2CCC[C@@H]2C(F)(F)F)CC1)c1cccc(Cl)c1 [Compound 507, (R)-3-chloro-N-((1-(2-oxo-2-(2-(trifluoromethyl)pyrrolidin-1-yl)ethyl)piperidin-4-yl)methyl) benzamide]
[1]
  IC50: 2980 nM
[2]
  IC50: 1480 nM

## CC(C)(C)C(=O)NCCN1CCC(CNC(=O)c2cc(Cl)cc(Cl)c2)CC1 [Compound 298, 3,5-dichloro-N-((1-(2-pivalamidoethyl)piperidin-4-yl)methyl)benzamide]
[1]
  IC50: < 300 nM
[2]
  IC50: 280 nM

## CC(C)(C)C(=O)NCCN1CCC(CNC(=O)/C=C/c2cc(Cl)cc(Cl)c2)CC1 [Compound 300, (E)-3-(3,5-dichlorophenyl)-N-((1-(2-pivalamidoethyl)piperidin-4-yl)methyl)acrylamide]
[1]
  IC50: 2810 nM
[2]
  IC50: 3250 nM

## COc1cc(C(=O)NCC2CCN(CCNC(=O)CCC(F)(F)F)CC2)cc(C(F)(F)F)c1 [Compound 317, 3-methoxy-N-((1-(2-(4,4,4-trifluorobutanamido)ethyl)piperidin-4-yl)methyl)-5-(trifluoromethyl)benzamide]
[1]
  IC50: 660 nM
[2]
  IC50: 560 nM

## COc1cc(OC)cc(C(=O)NCC2CCN(CCNC(=O)C(C)(C)C(F)(F)F)CC2)c1 [Compound 491, 3,5-dimethoxy-N-((1-(2-(3,3,3-trifluoro-2,2-dimethylpropanamido)ethyl)piperidin-4-yl)methyl)benzamide]
[1]
  IC50: < 300 nM
[2]
  IC50: 190 nM

## CCCNC(=O)CN1CCC(CNC(=O)c2cc(C)cc(C)c2)CC1 [Compound 445, 3,5-dimethyl-N-((1-(2-oxo-2-(propylamino)ethyl)piperidin-4-yl)methyl)benzamide]
[1]
  IC50: > 10000 nM
[2]
  IC50: > 10000 nM

## O=C(NCC1CCN(CCNS(=O)(=O)C2CC2)CC1)c1ccc(C(F)(F)F)c(F)c1 [Compound 387, N-((1-(2-(cyclopropanesulfonamido)ethyl)piperidin-4-yl)methyl)-3-fluoro-4-(trifluoromethyl)benzamide]
[1]
  IC50: 990 nM
[2]
  IC50: 720 nM

## O=C(NCC1CCN(C(=O)[C@@H]2CCCCN2)CC1)c1cc(C(F)(F)F)cc(C(F)(F)F)c1 [Compound 88, (S)-N-((1-(piperidine-2-carbonyl)piperidin-4-yl)methyl)-3,5-bis(trifluoromethyl)benzamide]
[1]
  IC50: > 10000 nM
[2]
  IC50: > 10000 nM

## O=C(NCC1CCN(CCNC(=O)C2(C(F)(F)F)CC2)CC1)c1cccc(OC(F)(F)F)c1 [Compound 474, 3-(trifluoromethoxy)-N-((1-(2-(1-(trifluoromethyl)cyclopropanecarbox-amido)ethyl)piperidin-4-yl)methyl) benzamide]
[1]
  IC50: < 300 nM
[2]
  IC50: 40 nM

## CC(C)(C)OC(=O)NC(CN1CCC(CC(=O)NCCc2c[nH]c3ccc(F)cc23)CC1)C(C)(C)C (stereo not shown) [Compound 196, tert-butyl 1-(4-(2-(2-(5-fluoro-1H-indol-3-yl)ethylamino)-2-oxoethyl)piperidin-1-yl)-3,3-dimethylbutan-2-ylcarbamate]
[1]
  IC50: > 10000 nM
[2]
  IC50: > 10000 nM

## CC(C)(C)ONC(=O)CN1CCC(CNC(=O)c2cc(C(F)(F)F)cc(C(F)(F)F)c2)CC1 [Compound 560, N-((1-(2-(tert-butoxyamino)-2-oxoethyl)piperidin-4-yl)methyl)-3,5-bis(trifluoromethyl)benzamide]
[1]
  IC50: 470 nM
[2]
  IC50: 590 nM

## O=C(NCC1CCN(C(=O)CN2CCCC(O)C2)CC1)c1cc(C(F)(F)F)cc(C(F)(F)F)c1 (stereo not shown) [Compound 240, N-((1-(2-(3-hydroxypiperidin-1-yl)acetyl)piperidin-4-yl)methyl)-3,5-bis(trifluoromethyl)benzamide]
[1]
  IC50: > 10000 nM
[2]
  IC50: > 10000 nM
